Measured values reported in patent US4175081A, “5-Substituted thiadiazole ureas” (priority 1977, dated 1979).

What was measured:
Cotton (CT) [1] = assay: Post-emergence herbicide test; type: in vivo, Gossypium hirsutum var. DPL smooth leaf; settings: Gossypium hirsutum, post-emergence, 336 h, two weeks after treatment; for pest or weed control at 2241.7 g/ha: 2 lb/acre; for pest or weed control at 4483.4 g/ha: 4 lb/acre
Method: (§1) Cotton (CT)--Gossypium hirsutum var. DPL smooth leaf
(§2) All crop and weed species were planted individually in 3' plastic pots containing potting soil. Four seeds each of corn, cotton, and snapbeans were seeded to a depth equal to the diameter of the seed. All other species were surface seeded and sprinkled with screened soil in an amount sufficient to cover the seed. Immediately after planting, all pots were watered by sub-irrigation in greenhouse trays. Pots for the pre-emergence phase were seeded one day before treatment.
(§3) Planting dates for the post-emergence phase were varied so that all seedlings would reach the desired stage of development simultaneously. The proper stage of seedling development for treatment in the post-emergence phase is as follows:
Cotton: first true leaf 1' in length; expanded cotyledons.
(§4) Spray hood constants required to deliver the above volume are as follows:
(§5) Formulations for spray applications were prepared in 50 ml volumes with the following three components:
(§6) Formulations for the 4 lbs/acre rate were prepared by adjusting the amount of active ingredient accordingly.
(§7) Spray applications were made in a hood containing a removable belt and fixed spray nozzle. For passage through the spray hood, one pot of each specie (pre-emergence phase) was placed on the rear half of the flat. Treatments were removed to the greenhouse after spraying. Watering during the observation period was done only by sub-irrigation.
(§8) Two weeks after treatment, pre- and post-emergence injury or control was visually rated, and the results were as shown in the following tables. Pre-emergence data are provided in TABLE III and post-emergence data are provided in TABLE IV, for compounds having the formula illustrated in TABLE I. Correspondingly, pre-emergence and post-emergence data, respectively, are set forth in TABLES V AND VI, for compounds having the formula illustrated in TABLE II.

Turnip (TP) [2] = assay: Post-emergence herbicide test; type: in vivo, Brassica sp.; settings: Brassica rapa, post-emergence, 336 h, two weeks after treatment; for pest or weed control at 2241.7 g/ha: 2 lb/acre; for pest or weed control at 4483.4 g/ha: 4 lb/acre
Method: (§9) Turnip (TP)--Brassica sp.
as §2, §3
Pigweed and turnips: 1 or 2 true leaves above visible cotyledons.
as §4
(§10) Formulations for spray applications were prepared in 50 ml volumes with the following three components: […]
as §7, §8

Bean (BN) [3] = assay: Post-emergence herbicide test; type: in vivo, Phaseolus vulgaris var. Black Valentine; settings: Phaseolus vulgaris, post-emergence, 336 h, two weeks after treatment; for pest or weed control at 2241.7 g/ha: 2 lb/acre; for pest or weed control at 4483.4 g/ha: 4 lb/acre
Method: (§11) Bean (BN)--Phaseolus vulgaris var. Black Valentine
as §2, §3
Beans: primary leaves expanded, growing point at primary leaf nodes.
as §4, §5, §6, §7, §8

Crabgrass (CG) [4] = assay: Pre-emergence herbicide test; type: in vivo, Digitaria sanquinalis; settings: Digitaria sanguinalis, pre-emergence, 336 h, two weeks after treatment; for pest or weed control: 2 lb/acre; for pest or weed control at 4483.4 g/ha: 4 lb/acre
Method: (§12) Crabgrass (CG)--Digitaria sanquinalis
as §2, §4, §10, §7, §8

Barnyard grass (BG) [5] = assay: Pre-emergence herbicide test; type: in vivo; settings: Echinochloa crus-galli, 336 h, two weeks after treatment; for pest or weed control at 2241.7 g/ha: 2 lb/acre; for pest or weed control at 4483.4 g/ha: 4 lb/acre
Method: (§13) Barnyard grass (BG)--Echinochloa crus-galli
as §2
(§14) Compounds were tested at rates of application equivalent to 8 lbs. of actual compound per acre in a spray volume of 38 gallons per acre. Spray hood constants required to deliver the above volume are as follows:
as §5, §6, §7, §8

Johnson grass (JG) [6] = assay: Post-emergence herbicide test; type: in vivo, Sorgum helepense; settings: Sorghum halepense, 336 h, two weeks after treatment; for pest or weed control at 4483.4 g/ha: 4 lb/acre
Method: (§15) Johnson grass (JG)--Sorgum helepense
as §2, §3, §14, §5, §6, §7, §8

Bean (BN) [7] = assay: Pre-emergence herbicide test; type: in vivo, Phaseolus vulgaris var. Black Valentine; settings: Phaseolus vulgaris, 336 h, two weeks after treatment; for pest or weed control at 2241.7 g/ha: 2 lb/acre; for pest or weed control at 4483.4 g/ha: 4 lb/acre
Method: as §11, §2, §14, §5, §6, §7, §8

Corn (CN) [8] = assay: Pre-emergence herbicide test; type: in vivo; settings: Zea mays, 336 h, two weeks after treatment; for pest or weed control at 2241.7 g/ha: 2 lb/acre; for pest or weed control at 4483.4 g/ha: 4 lb/acre
Method: as §2, §14, §5, §6, §7, §8

Turnip (TP) [9] = assay: Pre-emergence herbicide test; type: in vivo, Brassica sp.; settings: Brassica rapa, pre-emergence, 336 h, two weeks after treatment; for pest or weed control at 2241.7 g/ha: 2 lb/acre; for pest or weed control at 4483.4 g/ha: 4 lb/acre
Method: as §9, §2, §4, §10, §7, §8

Cotton (CT) [10] = assay: Pre-emergence herbicide test; type: in vivo, Gossypium hirsutum var. DPL smooth leaf; settings: Gossypium hirsutum, 336 h, two weeks after treatment; for pest or weed control at 2241.7 g/ha: 2 lb/acre; for pest or weed control at 4483.4 g/ha: 4 lb/acre
Method: as §1, §2, §14, §5, §6, §7, §8

Johnson grass (JG) [11] = assay: Pre-emergence herbicide test; type: in vivo, Sorgum helepense; settings: Sorghum halepense, 336 h, two weeks after treatment; for pest or weed control at 2241.7 g/ha: 2 lb/acre; for pest or weed control at 4483.4 g/ha: 4 lb/acre
Method: as §15, §2, §14, §5, §6, §7, §8

Barnyard grass (BG) [12] = assay: Post-emergence herbicide test; type: in vivo; settings: Echinochloa crus-galli, 336 h, two weeks after treatment; for pest or weed control at 4483.4 g/ha: 4 lb/acre
Method: as §13, §2, §3, §14, §5, §6, §7, §8

Corn (CN) [13] = assay: Post-emergence herbicide test; type: in vivo; settings: Zea mays, 336 h, two weeks after treatment; for pest or weed control: 2 lb/acre; for pest or weed control at 4483.4 g/ha: 4 lb/acre
Method: as §2, §3, §14, §5, §6, §7, §8

Crabgrass (CG) [14] = assay: Post-emergence herbicide test; type: in vivo, Digitaria sanquinalis; settings: Digitaria sanguinalis, post-emergence, 336 h, two weeks after treatment; for pest or weed control: 2 lb/acre; for pest or weed control at 4483.4 g/ha: 4 lb/acre
Method: as §12, §2, §3, §4, §10, §7, §8

| SMILES | pest or weed control at 2241.7 g/ha (Cotton (CT) [1]) [%] | pest or weed control at 2241.7 g/ha (Turnip (TP) [2]) [%] | pest or weed control at 2241.7 g/ha (Bean (BN) [3]) [%] | pest or weed control (Crabgrass (CG) [4]) [%] | pest or weed control at 2241.7 g/ha (Barnyard grass (BG) [5]) [%] | pest or weed control at 2241.7 g/ha (Bean (BN) [7]) [%] | pest or weed control at 2241.7 g/ha (Corn (CN) [8]) [%] | pest or weed control at 2241.7 g/ha (Turnip (TP) [9]) [%] | pest or weed control at 2241.7 g/ha (Cotton (CT) [10]) [%] | pest or weed control at 2241.7 g/ha (Johnson grass (JG) [11]) [%] | pest or weed control (Corn (CN) [13]) [%] | pest or weed control (Crabgrass (CG) [14]) [%] | pest or weed control at 4483.4 g/ha (Cotton (CT) [1]) [%] | pest or weed control at 4483.4 g/ha (Turnip (TP) [2]) [%] | pest or weed control at 4483.4 g/ha (Bean (BN) [3]) [%] | pest or weed control at 4483.4 g/ha (Crabgrass (CG) [4]) [%] | pest or weed control at 4483.4 g/ha (Barnyard grass (BG) [5]) [%] | pest or weed control at 4483.4 g/ha (Johnson grass (JG) [6]) [%] | pest or weed control at 4483.4 g/ha (Bean (BN) [7]) [%] | pest or weed control at 4483.4 g/ha (Corn (CN) [8]) [%] | other results |
| --- | --- | --- | --- | --- | --- | --- | --- | --- | --- | --- | --- | --- | --- | --- | --- | --- | --- | --- | --- | --- | --- |
| CCCSc1nnc(NC(=O)NC)s1 [Example 41, 1-Methyl-3-[5-n-Propylthio-2-(1,3,4-Thiadiazolyl)]Urea] | 100 | 70 | 70 | 90 | 50 | 30 | 10 | 60 | 50 | 70 | 100 | 100 |  |  |  |  |  |  |  |  | pest or weed control (Johnson grass (JG) [6]; 2 lb/acre): 90%; pest or weed control at 2241.7 g/ha (Barnyard grass (BG) [12]; 2 lb/acre): 90% |
| CCCS(=O)(=O)c1nnc(NC(=O)NC)s1 [Example 62] | 90 | 100 | 100 | 90 | 60 | 60 | 0 | 80 | 100 | 40 | 100 | 100 | 100 | 100 | 100 | 90 | 60 | 100 | 50 | 0 | pest or weed control at 4483.4 g/ha (Turnip (TP) [9]): 40%; pest or weed control at 4483.4 g/ha (Cotton (CT) [10]): 100%; pest or weed control at 4483.4 g/ha (Johnson grass (JG) [11]): 40%; pest or weed control at 4483.4 g/ha (Barnyard grass (BG) [12]): 80%; pest or weed control at 4483.4 g/ha (Corn (CN) [13]): 50%; pest or weed control at 4483.4 g/ha (Crabgrass (CG) [14]): 100% |
| CNC(=O)Nc1nnc(-c2cccc(C(F)(F)F)c2)s1 [Example 73] |  |  |  |  |  |  |  |  |  |  |  |  | 50 | 60 | 40 | 0 | 0 | 50 | 80 | 50 | pest or weed control at 4483.4 g/ha (Turnip (TP) [9]): 60%; pest or weed control at 4483.4 g/ha (Cotton (CT) [10]): 100%; pest or weed control at 4483.4 g/ha (Johnson grass (JG) [11]): 0%; pest or weed control at 4483.4 g/ha (Barnyard grass (BG) [12]): 40%; pest or weed control at 4483.4 g/ha (Corn (CN) [13]): 30%; pest or weed control at 4483.4 g/ha (Crabgrass (CG) [14]): 30% |
| CNC(=O)Nc1nnc(-c2ccccc2Cl)s1 [Example 74] |  |  |  |  |  |  |  |  |  |  |  |  |  |  |  |  |  |  |  |  | pest or weed control at 8966.8 g/ha (Cotton (CT) [1]; 8 lb/acre): 50%; pest or weed control at 8966.8 g/ha (Turnip (TP) [2]; 8 lb/acre): 80%; pest or weed control at 8966.8 g/ha (Bean (BN) [3]; 8 lb/acre): 80%; pest or weed control at 8966.8 g/ha (Crabgrass (CG) [4]; 8 lb/acre): 20%; pest or weed control at 8966.8 g/ha (Barnyard grass (BG) [5]; 8 lb/acre): 30%; pest or weed control at 8966.8 g/ha (Johnson grass (JG) [6]; 8 lb/acre): 40%; pest or weed control at 8966.8 g/ha (Bean (BN) [7]; 8 lb/acre): 100%; pest or weed control at 8966.8 g/ha (Corn (CN) [8]; 8 lb/acre): 0%; pest or weed control at 8966.8 g/ha (Turnip (TP) [9]; 8 lb/acre): 50%; pest or weed control at 8966.8 g/ha (Cotton (CT) [10]; 8 lb/acre): 100%; pest or weed control at 8966.8 g/ha (Johnson grass (JG) [11]; 8 lb/acre): 0%; pest or weed control at 8966.8 g/ha (Barnyard grass (BG) [12]; 8 lb/acre): 40%; pest or weed control at 8966.8 g/ha (Corn (CN) [13]; 8 lb/acre): 40%; pest or weed control at 8966.8 g/ha (Crabgrass (CG) [14]; 8 lb/acre): 70% |
